Results on 5 molecules are retold here after ChEMBL document CHEMBL5291721, “A preclinical secondary pharmacology resource illuminates target-adverse drug reaction associations of marketed drugs” (Nat Commun, 2023).

Where only a bound is given, the exact number is not on record here.

Some targets named below: Histamine H2 receptor (Homo sapiens, UniProt P25021); Substance-P receptor (Homo sapiens, UniProt P25103); D(1A) dopamine receptor (Homo sapiens, UniProt P21728).
In assay [1] the target is T1, Alpha-1A adrenergic receptor (Homo sapiens, UniProt P35348).
T1 sequence (P35348 whole entry): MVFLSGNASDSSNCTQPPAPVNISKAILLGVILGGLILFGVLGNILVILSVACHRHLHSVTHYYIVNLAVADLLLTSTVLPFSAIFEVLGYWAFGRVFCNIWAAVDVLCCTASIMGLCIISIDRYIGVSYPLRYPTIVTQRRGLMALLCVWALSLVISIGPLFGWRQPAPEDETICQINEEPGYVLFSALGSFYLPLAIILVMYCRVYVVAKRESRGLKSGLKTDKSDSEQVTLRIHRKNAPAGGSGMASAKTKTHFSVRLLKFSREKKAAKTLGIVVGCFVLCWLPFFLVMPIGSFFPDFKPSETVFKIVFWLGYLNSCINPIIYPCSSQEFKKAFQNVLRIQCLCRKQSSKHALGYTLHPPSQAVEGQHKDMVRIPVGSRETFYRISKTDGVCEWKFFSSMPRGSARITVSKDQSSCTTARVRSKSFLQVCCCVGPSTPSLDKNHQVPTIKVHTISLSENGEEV

Assay [2] addresses Neurotensin receptor type 1 (Homo sapiens, UniProt P30989).
For assay [3], the target named is T2, Equilibrative nucleoside transporter 1 (Homo sapiens, UniProt Q99808).
T2 sequence (Q99808 whole entry): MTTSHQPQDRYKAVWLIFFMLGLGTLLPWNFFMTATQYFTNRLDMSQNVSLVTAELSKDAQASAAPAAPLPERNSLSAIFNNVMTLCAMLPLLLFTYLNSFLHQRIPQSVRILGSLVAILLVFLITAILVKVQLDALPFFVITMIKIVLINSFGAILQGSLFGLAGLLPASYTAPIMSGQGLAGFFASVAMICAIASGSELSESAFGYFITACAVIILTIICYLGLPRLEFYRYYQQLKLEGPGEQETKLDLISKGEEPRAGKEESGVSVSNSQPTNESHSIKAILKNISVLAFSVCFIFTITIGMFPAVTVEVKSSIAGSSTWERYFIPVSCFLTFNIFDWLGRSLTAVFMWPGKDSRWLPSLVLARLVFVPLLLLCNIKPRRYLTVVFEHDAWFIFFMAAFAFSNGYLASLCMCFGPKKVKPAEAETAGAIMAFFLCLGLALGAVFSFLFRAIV

The target of assay [4] is Sodium-dependent noradrenaline transporter (Homo sapiens, UniProt P23975).
Assay [5] addresses Sodium-dependent serotonin transporter (Homo sapiens, UniProt P31645).
Also: assay procedure not described here.

Chain of Histamine H2 receptor (P25021 whole entry): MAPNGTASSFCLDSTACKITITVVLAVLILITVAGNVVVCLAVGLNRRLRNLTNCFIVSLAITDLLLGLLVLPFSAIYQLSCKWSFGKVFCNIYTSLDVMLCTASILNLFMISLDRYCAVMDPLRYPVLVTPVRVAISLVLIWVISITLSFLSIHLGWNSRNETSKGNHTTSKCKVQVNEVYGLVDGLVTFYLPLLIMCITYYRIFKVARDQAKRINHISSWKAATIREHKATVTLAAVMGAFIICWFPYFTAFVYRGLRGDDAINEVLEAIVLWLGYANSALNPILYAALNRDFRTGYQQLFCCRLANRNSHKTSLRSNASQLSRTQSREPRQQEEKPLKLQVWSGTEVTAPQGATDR
Chain of D(1A) dopamine receptor (P21728 whole entry): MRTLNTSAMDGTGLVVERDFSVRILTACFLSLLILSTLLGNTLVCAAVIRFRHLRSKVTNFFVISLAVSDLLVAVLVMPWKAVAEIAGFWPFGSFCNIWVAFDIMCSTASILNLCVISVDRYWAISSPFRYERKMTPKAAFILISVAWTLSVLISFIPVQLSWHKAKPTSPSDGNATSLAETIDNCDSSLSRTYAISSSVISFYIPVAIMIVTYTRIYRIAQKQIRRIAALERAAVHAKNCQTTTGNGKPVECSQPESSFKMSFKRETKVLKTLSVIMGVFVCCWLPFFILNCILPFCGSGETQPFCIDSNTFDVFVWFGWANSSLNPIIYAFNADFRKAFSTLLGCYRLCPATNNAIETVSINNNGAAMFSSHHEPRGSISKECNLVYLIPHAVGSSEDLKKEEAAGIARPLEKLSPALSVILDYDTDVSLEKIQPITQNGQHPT
Chain of Sodium-dependent serotonin transporter (P31645 whole entry): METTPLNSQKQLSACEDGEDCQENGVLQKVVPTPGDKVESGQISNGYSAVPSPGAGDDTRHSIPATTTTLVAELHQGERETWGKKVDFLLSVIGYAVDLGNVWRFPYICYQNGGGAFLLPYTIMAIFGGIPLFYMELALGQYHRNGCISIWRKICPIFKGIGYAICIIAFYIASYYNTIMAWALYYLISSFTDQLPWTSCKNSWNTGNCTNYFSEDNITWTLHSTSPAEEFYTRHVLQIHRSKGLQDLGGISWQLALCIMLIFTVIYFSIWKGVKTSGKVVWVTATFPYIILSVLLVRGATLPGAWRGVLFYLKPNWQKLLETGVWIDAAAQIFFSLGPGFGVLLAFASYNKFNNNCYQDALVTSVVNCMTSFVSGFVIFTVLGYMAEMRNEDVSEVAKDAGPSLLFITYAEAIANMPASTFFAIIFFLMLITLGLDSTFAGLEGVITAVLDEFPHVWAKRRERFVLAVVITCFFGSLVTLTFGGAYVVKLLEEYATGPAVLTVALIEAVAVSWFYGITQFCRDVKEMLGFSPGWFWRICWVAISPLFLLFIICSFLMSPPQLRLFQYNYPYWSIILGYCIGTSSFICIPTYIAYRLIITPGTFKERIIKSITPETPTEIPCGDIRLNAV
Chain of Substance-P receptor (P25103 whole entry): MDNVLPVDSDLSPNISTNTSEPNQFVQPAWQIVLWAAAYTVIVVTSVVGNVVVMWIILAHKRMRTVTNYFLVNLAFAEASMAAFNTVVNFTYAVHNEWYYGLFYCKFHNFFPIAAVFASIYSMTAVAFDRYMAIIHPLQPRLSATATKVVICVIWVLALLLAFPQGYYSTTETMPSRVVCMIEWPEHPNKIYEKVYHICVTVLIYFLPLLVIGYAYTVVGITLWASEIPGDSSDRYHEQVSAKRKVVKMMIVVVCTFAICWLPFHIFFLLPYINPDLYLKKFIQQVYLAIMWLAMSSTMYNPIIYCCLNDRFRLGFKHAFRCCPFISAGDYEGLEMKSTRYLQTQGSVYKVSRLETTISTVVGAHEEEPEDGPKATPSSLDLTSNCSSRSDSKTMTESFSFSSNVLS
Chain of Neurotensin receptor type 1 (P30989 whole entry): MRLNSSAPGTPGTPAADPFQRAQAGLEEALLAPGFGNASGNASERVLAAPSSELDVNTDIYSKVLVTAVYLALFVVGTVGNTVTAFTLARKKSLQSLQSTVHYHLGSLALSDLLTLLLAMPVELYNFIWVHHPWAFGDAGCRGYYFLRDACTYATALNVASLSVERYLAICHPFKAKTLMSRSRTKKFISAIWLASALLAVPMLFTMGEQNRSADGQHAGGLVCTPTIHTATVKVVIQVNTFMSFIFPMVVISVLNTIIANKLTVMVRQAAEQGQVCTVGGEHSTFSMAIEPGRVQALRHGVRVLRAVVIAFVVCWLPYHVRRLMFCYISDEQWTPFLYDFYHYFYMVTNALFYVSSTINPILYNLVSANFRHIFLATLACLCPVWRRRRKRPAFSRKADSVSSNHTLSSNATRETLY
Chain of Sodium-dependent noradrenaline transporter (P23975 whole entry): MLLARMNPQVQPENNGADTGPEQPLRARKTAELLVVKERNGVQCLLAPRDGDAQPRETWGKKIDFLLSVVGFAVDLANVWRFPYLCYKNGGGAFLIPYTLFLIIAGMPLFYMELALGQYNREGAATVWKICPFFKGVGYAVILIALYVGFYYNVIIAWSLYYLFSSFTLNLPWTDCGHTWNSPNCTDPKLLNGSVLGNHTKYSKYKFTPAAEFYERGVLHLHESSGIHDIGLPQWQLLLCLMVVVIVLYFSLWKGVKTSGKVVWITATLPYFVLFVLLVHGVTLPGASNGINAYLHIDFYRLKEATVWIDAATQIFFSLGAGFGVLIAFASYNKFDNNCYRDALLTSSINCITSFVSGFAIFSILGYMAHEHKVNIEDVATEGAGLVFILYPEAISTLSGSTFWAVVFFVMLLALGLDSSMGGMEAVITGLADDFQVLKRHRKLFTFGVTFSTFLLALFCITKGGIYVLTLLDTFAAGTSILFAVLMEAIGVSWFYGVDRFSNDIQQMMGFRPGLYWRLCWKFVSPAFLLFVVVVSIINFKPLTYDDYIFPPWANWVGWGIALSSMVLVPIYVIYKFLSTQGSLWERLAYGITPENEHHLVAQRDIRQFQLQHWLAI

A word on the AC50: it is the midpoint of the concentration-response curve, whichever way the signal moves. A low value points to greater potency. For the molecule `O=C(Nc1nc(-c2cc(Cl)cs2)c(N2CCN(C3CCCCC3)CC2)s1)c1cnc(N2CCC(C(=O)O)CC2)c(Cl)c1` [AVATROMBOPAG], the AC50 in assay [1] is more than 30 µM; on Histamine H2 receptor it was more than 10 µM; in assay [2], more than 10 µM; in assay [3], more than 10 µM; at Substance-P receptor it was more than 10 µM; in assay [4], more than 10 µM. Besides, the AC50 (in assay [5]; at D(1A) dopamine receptor) was more than 10 µM in each case.
The molecule `CO[C@@]1(NC(=O)CSCC#N)C(=O)N2C(C(=O)O)=C(CSc3nnnn3C)CS[C@@H]21` [CEFMETAZOLE] showed an AC50 in assay [1] of more than 30 µM.
On the same count and under the same terms, for `Oc1c(I)cc(Cl)c2cccnc12` [CLIOQUINOL] the value was more than 30 µM; for `CCC(=O)O[C@@H]1CC(=O)O[C@H](C)C/C=C/C=C/[C@H](OC(C)=O)[C@H](C)C[C@H](CC=O)[C@H](O[C@@H]2O[C@H](C)[C@@H](O[C@H]3C[C@@](C)(OC(C)=O)[C@@H](OC(=O)CC)[C@H](C)O3)[C@H](N(C)C)[C@H]2O)[C@H]1OC` [MIOCAMYCIN], more than 30 µM; for `C1CNCCN1` [PIPERAZINE], more than 30 µM.
